Results reported in patent US6762200B2, “Oxa(thia)zolidine derivative and anti-inflammatory drug” (Nippon Soda Co. Ltd., priority 2000, dated 2004).
Where two headings read alike, the source gives them in different places.

Experiments:
IV-cPLA(2) = target: T1, IV-cPLA(2) (Homo sapiens, UniProt P47712); experiment: PLA(2) activity, hydrolysis of bis-BODIPY FL C11-PC in activated U937 cells; type: cell-based
T1 sequence (P47712 1-749): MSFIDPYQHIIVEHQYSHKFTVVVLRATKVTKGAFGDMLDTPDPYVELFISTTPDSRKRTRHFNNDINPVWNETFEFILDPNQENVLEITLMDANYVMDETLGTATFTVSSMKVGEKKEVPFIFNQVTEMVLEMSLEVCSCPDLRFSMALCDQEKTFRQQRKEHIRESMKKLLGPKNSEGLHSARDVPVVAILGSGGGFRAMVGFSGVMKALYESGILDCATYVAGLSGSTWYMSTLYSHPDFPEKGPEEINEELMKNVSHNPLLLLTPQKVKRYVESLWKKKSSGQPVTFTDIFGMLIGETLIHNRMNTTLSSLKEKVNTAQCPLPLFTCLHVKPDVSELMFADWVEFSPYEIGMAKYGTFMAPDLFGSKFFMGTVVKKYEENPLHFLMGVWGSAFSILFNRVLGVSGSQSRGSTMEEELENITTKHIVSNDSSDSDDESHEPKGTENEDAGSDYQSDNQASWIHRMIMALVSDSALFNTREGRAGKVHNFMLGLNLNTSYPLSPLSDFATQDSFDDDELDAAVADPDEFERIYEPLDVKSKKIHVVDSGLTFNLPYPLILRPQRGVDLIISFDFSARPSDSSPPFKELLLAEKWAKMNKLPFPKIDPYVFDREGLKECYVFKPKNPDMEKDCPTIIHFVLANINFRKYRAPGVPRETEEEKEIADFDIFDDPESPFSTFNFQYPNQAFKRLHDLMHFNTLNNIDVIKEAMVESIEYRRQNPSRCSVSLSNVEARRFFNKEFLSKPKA
Procedure: The PLA(2) activity was measured by quantitatively analyzing the fluorescent product of hydrolysis from 1,2-bis-(4,4-difluoro-5,7-dimethyl-4-bora-3a,4a-diaza-s-indecene-3-undecanoyl)-sn-glycero-3-phosphocholine (hereinafter referred to bis-BODIPY®FL C11—PC, Molecular Probes, Inc., B-7701) using activated U937 cells (human monoblastic lymphoma cell line) by inflammatory stimulus (Meshulam, T. et al., The journal of Biological Chemistry 267 (30): 21465-21470 (1992); and Solito, E. et al., British Journal of Pharmacology 124: 1675-1683 (1998).). The substrate bis-BODIPY®FL C11—PC is incorporated into cellular membranes, the proximity of the BODIPY FL fluorophores on adjacent phospholipid acyl chains causes fluorescence self-quenching. Separation of the fluorophores upon hydrolytic cleavage of one of the acyl chains by PLA(1) or the PLA(2) results in increased fluorescence. In the activated U937 by inflammatory stimulus, it is shown that this substrate should be cleaved enzymatically by IV-cPLA(2) from the feature of its behaviors including sensitivity profiles against the inhibitors.
The human cell line U937 was purchased from Dai-Nippon Pharmaceuticals Co., Ltd. The cells were maintained by transferring every 3-4 days into RPMI 1640 medium (Sigma Chemical Co., R6504) supplemented with heat-inactivated 10% fetal bovine serum (Fetal Bovine Serum, Sigma Chemical Co., F 4135) in a 5% CO2 humidified atmosphere at 37° C. The cells were transferred into the culture medium described above, containing 1.2% (v/v) dimethylsulfoxide (hereinafter referred to as […], Nacalai tesque Co., Ltd., D 134-45), and pre-cultured for 96 to 120 hours so as to differentiate into the macrophage-like cells to be provided for the assay. The macrophage-like cells were collected and washed by centrifugation with the Assay medium (Dulbecco's phosphate buffered saline (hereinafter referred to as PBS)-2.2 mM glucose-2.5 μm albumin). Then, Phorbol 12-Myristate 13-Acetate (hereinafter referred to as TPA, Sigma Chemical Co., P 8139) was added to the Assay medium to be 1×10^−8M as the final concentration. Then, the macrophage-like cells were further cultured for an hour to be activated (Rzigalinski, B. A. & Rosenthal, M. D., Biochimica et Biophysica Acta 1223: 219-225 (1994); and Gonchar, M. V. et al., Biochemical and Biophysical Research Communication, 249: 829-832 (1998).).
For preparing substrate liposome suspension, bis-BODIPY®FL C11—PC was combined with phosphatidylcholine (Sigma Chemical Co., P 7769) at 1:9 molar ratio in chloroform, and dried under nitrogen flow. The dried mixture was suspended with the Assay medium at 100 μg/mL, voltexed and sonicated for an hour on ice under dark condition.
The test compound was dissolved with DMSO at 30 mM, and the solution diluted with either DMSO or the Assay medium before addition into the reaction mixture. The DMSO concentration in the reaction mixture was controlled so as to be no more than 0.1%. The 30-fold concentration of test compound solution was put into each well of MICRPTEST™ Tissue Culture Plate, 96 Well (Falcon, 3072) at a rate of 2.5 μL/well. To the respective well was added 25 μL/well of the activated U937 cell suspension ([…]), and the cells were pre-cultured for 120 min. at 37° C. in a 5% CO2 atmosphere incubator. 47.5 μL/well of the substrate liposome suspension with 1.5×10^−6M A23187 (Sigma Chemical Co., C 7522) was added into each well to prepare 75 μL/well of the total reaction mixture, followed by culture for 30 min. under the same conditions with shielding against light. 100 μL/well of 0.1% GEDTA (Dojindo Laboratories Co. Ltd., 348-01311) methanol solution was added into each well and mixed to stop the reaction. […]

TPA-induced ear edema = type: in vivo, ICR-strain male mouse; conditions: topical, 6 hours after TPA
Procedure: This test was carried out referring to the method of Carlson, R. P. et al. (Agents and Actions, 17(2): 197-204 (1985).) and the method of Chang, J. (European Journal of Pharmacology, 142: 197-205 (1987).). […] 6 hours later, the thickness of each ear at the particular part was respectively measured three times using a digimatic micrometer to calculate the mean value. Ear edema was determined by subtracting the mean thickness of the left ear as without treatment from that of the right ear as TPA-applied. […] As the positive control, 100 mg/kg of Hydrocortisone (Sigma Chemical Co., H 4001) suspension was applied to the mouse similarly as for the compound of the present invention.

| SMILES | Inhibition (%) (IV-cPLA(2); 0.1 μM) | also measured |
| --- | --- | --- |
| C[C@@H]1[C@@H](c2ccc(Cl)cc2)SC(=O)N1C(=O)NC1CCCCO1 (single isomer, unassigned) [Compound 2-246] | – | Inhibition (%) (IV-cPLA(2); 0.01 μM): 78%; Ear Edema Inhibition (%) (TPA-induced ear edema; 1 mg/40 μL/ear × 2): 74% |
| CC1C(c2ccc(Cl)cc2)SC(=NC#N)N1Cc1ccc(Cl)nc1 (stereo not drawn) [Compound 1-5] | 66% | – |
| CC1NC(=N[N+](=O)[O-])SC1c1ccc(Cl)cc1 (stereo not drawn) [Compound 1-11] | 88% | – |
| CN=C1OC(c2ccc(C)cc2)C(C)N1C(=O)Nc1ccc(Cl)cc1 (stereo not drawn) [Compound 1-25] | 100% | – |
| CC(C)N=C1OC(c2ccc(Cl)cc2)C(C)N1C(=O)NC1CCCCC1 (stereo not drawn) [Compound 1-28] | 93% | Ear Edema Inhibition (%) (TPA-induced ear edema; 1 mg/20 μL/ear × 2): 36% |
| CCOC(=O)CN=C1NC(C)C(c2ccc(C)cc2)S1 (stereo not drawn) [Compound 1-35] | 57% | – |
| CC(=O)N=C1SC(c2ccccc2)C(C)N1CC(OC(C)=O)c1ccccc1 (stereo not drawn) [Compound 1-42] | 94% | – |
| C=CC(=O)N=C1SC(c2ccc(C)cc2)C(C)N1C(=O)NC1CCCCC1 (stereo not drawn) [Compound 1-49] | 91% | – |
| Cc1ccc(C2OC(=NC(=O)c3c(C)cccc3Cl)NC2C)cc1 (stereo not drawn) [Compound 1-73] | 68% | Ear Edema Inhibition (%) (TPA-induced ear edema; 1 mg/40 μL/ear × 2): 86% |
| CCNC(=O)N1C(=NNc2ccccc2)SC(c2ccc(Cl)cc2)C1C (stereo not drawn) [Compound 1-77] | – | Inhibition (%) (IV-cPLA(2); 1 μM): 100% |
| Cc1ccc(N2C(=NC(=O)NC3CCCCC3)SC(c3ccc(Cl)cc3)C2C)cc1 (stereo not drawn) [Compound 1-90] | – | Ear Edema Inhibition (%) (TPA-induced ear edema; 1 mg/20 μL/ear × 2): 41% |
| Cc1ccc(C2SC(=NC(=S)NC3CCCCC3)NC2C)cc1 (stereo not drawn) [Compound 1-112] | – | Inhibition (%) (IV-cPLA(2); 1 μM): 72%; Ear Edema Inhibition (%) (TPA-induced ear edema; 1 mg/40 μL/ear × 2): 69% |
| CC1C(c2ccc(Cl)cc2)SC(=O)N1C(=O)Nc1ccncc1 (stereo not drawn) [Compound 2-21] | – | Inhibition (%) (IV-cPLA(2); 1 μM): 100% |
| CC1C(c2ccc(Cl)cc2)SC(=O)N1C(=O)NC(=O)c1ccccc1 (stereo not drawn) [Compound 2-38] | – | Inhibition (%) (IV-cPLA(2); 1 μM): 87% |
| O=C(NC1CCCCO1)N1CC(c2ccc(-c3ccccc3)cc2)OC1=O (stereo not drawn) [Compound 2-78] | – | Inhibition (%) (IV-cPLA(2); 0.01 μM): 100% |
| CC1C(c2cccc3ccccc23)OC(=O)N1C(=O)NC1CCCCO1 (stereo not drawn) [Compound 2-113] | – | Inhibition (%) (IV-cPLA(2); 1 μM): 72% |
| COC1CCCC(NC(=O)N2C(=O)OC(c3ccc4ccccc4c3)C2C)O1 (stereo not drawn) [Compound 2-133] | – | Inhibition (%) (IV-cPLA(2); 1 μM): 75% |
| CC1C(c2cnc3ccccc3c2)OC(=O)N1C(=O)NC1CCCCO1 (stereo not drawn) [Compound 2-151] | – | Inhibition (%) (IV-cPLA(2); 0.01 μM): 64% |
| Cc1ccc(C2OC(=O)N(C(=O)NN3CCN(C)CC3)C2C)cc1 (stereo not drawn) [Compound 2-161] | – | Inhibition (%) (IV-cPLA(2); 1 μM): 65% |
| CC1C(c2ccc(Cl)cc2)SC(=O)N1C(=O)NC1CCCCO1 (stereo not drawn) [Compound 2-201] | – | Inhibition (%) (IV-cPLA(2); 1 μM): 94% |
| CC(=O)OCC(=O)[C@@]1(O)[C@H](C)C[C@H]2[C@@H]3CCC4=CC(=O)C=C[C@]4(C)[C@@]3(F)[C@@H](O)C[C@@]21C [DEX-Ac, Dexamathasone-21-acetate, reference compound] | – | Ear Edema Inhibition (%) (TPA-induced ear edema; 0.3 mg/20 μL/ear × 2): 49%; Ear Edema Inhibition (%) (TPA-induced ear edema; 1 mg/20 μL/ear × 2): 80% |

Further lines, with some results ahead:

| Inhibition (%) (IV-cPLA(2); 0.1 μM) | SMILES | also measured |
| --- | --- | --- |
| 100% | CC1C(c2ccc(Cl)cc2)SC(=O)N1C(=O)NN(C)C (stereo not drawn) [Compound 2-22] | – |
| 63% | CC1C(c2ccc(Cl)cc2)SC(=O)N1C(=S)NCCN1CCOCC1 (stereo not drawn) [Compound 2-37] | – |
| 77% | Cc1ccc(C2OC(=O)N(C(=O)NCCCl)C2C)cc1 (stereo not drawn) [Compound 2-48] | – |
| 92% | COS(=O)(=O)NC(=O)N1C(=O)OC(c2ccc(C)cc2)C1C (stereo not drawn) [Compound 2-56] | – |
| 83% | CC1C(c2ccc(-c3ccccc3)cc2)OC(=O)N1C(=S)NC1CCCCC1 (stereo not drawn) [Compound 2-75] | – |
| 55% | Cc1ccc(C2OC(=O)N(C(=O)NC(=O)c3c(F)cccc3F)C2C)cc1 (stereo not drawn) [Compound 2-79] | – |
| 63% | CC1C(c2ccc3ccccc3c2)OC(=O)N1C(=O)NC1CCCCO1 (stereo not drawn) [Compound 2-115] | – |
| 54% | CCONC(=O)N1C(=O)OC(c2ccc(Oc3ccccc3)cc2)C1C (stereo not drawn) [Compound 2-116] | – |
| 82% | CC1C(c2ccc(Cc3ccccc3)cc2)OC(=O)N1C(=O)NC1CCCCO1 (stereo not drawn) [Compound 2-117] | – |
| 72% | CCN(C(C)C)S(=O)(=O)NC(=O)N1C(=O)OC(c2ccc3ccccc3c2)C1C (stereo not drawn) [Compound 2-126] | – |
| 68% | O=C(NC1CCCCO1)N1CC(c2ccc3ccccc3c2)OC1=O (stereo not drawn) [Compound 2-130] | – |
| 72% | CC1C(c2cccnc2)SC(=O)N1C(=O)NC1CCCCC1 (stereo not drawn) [Compound 2-145] | – |
| 95% | CC1C(c2ccccc2)OC(=O)N1C(=O)NC1CCCCO1 (stereo not drawn) [Compound 2-155] | – |
| 96% | Cc1ccc(C2OC(=O)N(C(=O)NC3CCSCC3)C2C)cc1 (stereo not drawn) [Compound 2-157] | – |
| 95% | Cc1ccc(C2OC(=O)N(C(=O)NC3CCOCC3)C2C)cc1 (stereo not drawn) [Compound 2-159] | – |
| 100% | CC1C(c2ccccc2)OC(=O)N1C(=S)NC1CCCCC1 (stereo not drawn) [Compound 2-180] | – |
| 91% | Cc1ccc(C2OC(=O)N(C(=S)NC3CCCCC3)C2C)cc1C (stereo not drawn) [Compound 2-182] | – |
| 75% | CC1C(c2ccc(-c3ccccc3)cc2)OC(=O)N1C(=O)Nc1ccc(Cl)cc1 (stereo not drawn) [Compound 2-186] | – |
| 74% | CC1C(c2ccc(-c3ccccc3)cc2)OC(=O)N1C(=O)Nc1ccc(Cl)cc1 (stereo not drawn) [Compound 2-187] | – |
